Structures are written as SMILES. Non-standard residues stand in square brackets, D forms with d. Residues, ends and D or L forms follow the SMILES beside them. αMeP = C[C@@]1(C(=O)O)CCCN1

The subject of assay [1] is ChAT-positive neurons in the striatum of 18-month old rats. The assay is described as follows: ChAT immunohistochemistry in striatum of aging rats. The assay is classed as in vivo, rat. As to conditions: single s.c. dose 0.012-12 mg/kg, 3 days after treatment. As for the experimental part: In this experiment, we tested the effects of G-2-MePE on the number of ChAT-positive neurons in brains of 18-month old rats.
Eighteen-month old male rats received one of five treatments. A control group was treated with vehicle (saline alone (n=4) and four groups were treated with a single dose of G-2-MePE. Doses of 0.012 (n=4), 0.12 (n=5), 1.2 (ln=5) and 12 mg/kg (n=3), respectively, were given sub-cutaneously. Rats were sacrificed with an overdose of pentobarbital 3 days after drug treatment. Brains were perfused with normal saline and 4% paraformaldehyde and fixed in perfusion fixative overnight. Brains were stored in 25% sucrose in 0.1M PBS (pH7.4) until the tissue sank. Frozen coronal sections of striatum were cut with a microtome and stored in 0.1% sodium azide in 0.1M PBS at 4° C. Immunoreactivity for choline acetyltransferase (ChAT) was established by staining using a free floating section method. Briefly, antibodies were diluted in 1% goat serum. The sections were incubated in 0.2% triton in 0.1M PBS/Triton™ at 4° C. overnight before Immunohistochemical staining. The sections were pre-treated with 1% H2O2 in 50% methanol for 20 min. […]
The size of the striatal region used for the count was measured using an image analyser. […]
Data were analysed using a paired t-test and presented as mean+/−SEM.

The test system of assay [2] is hippocampal CA1 neurons of mecp2 null mutant mice. The assay is described as follows: Golgi staining, dendrite morphology in mecp2 knockout mice. The assay is classed as in vivo, mouse. On the procedure: We assess the effects of G-2-MePE treatment on dendrites. Transgenic mecp2 knockout mice (n=15 to 20) were administered G-2-MePE intraperitoneally at a dose of 20 mg/kg once daily. Following sacrifice dendritic spine density, spine length and aborization were examined after Golgi staining after nine weeks, as per the Table 1 below:
Dendritic length was assessed by distance from the soma of representative hippocampal CA1 neurons from 9 week old male mecp2 null mutant mice treated with either saline (3 neurons analysed from 3 separate mice, n=9) or G-2-MePE (20 mg/kg i.p. 1/day, from week 4; 3 neurons analysed from 3 separate mice, n=9).

The subject of the next assay is MeCP2-/y mice. The assay is described as follows: Life span of MeCP2-/y mice (Example 10). The assay is classed as in vivo, mouse. As to conditions: 20 mg/kg i.p. daily; compared to MeCP2 KO littermates. On the procedure: For the survival measurements, the nocturnal activity analysis and the immunoblot analysis, G-2-MePE (synthesised Albany Molecular Research Inc. (Albany, N.Y.) and supplied by Neuren Pharmaceuticals Limited) is administered daily via intra-peritoneal injections (20 mg/kg, vehicle=saline, 0.01% BSA). The treatment starts at PI 5 and is maintained throughout the course of the experiments. For intracellular physiology experiments, the mice are injected daily with G-2-MePE (20 mg/kg body weight, vehicle=saline, 0.01% BSA) for 2 weeks, from P15 to P28-P32 when they are used for acute slice preparation. For optical imaging experiments, mice are injected with G-2-MePE (20 mg/kg body weight, vehicle=saline, 0.01% BSA) daily from the day of the lid suture to the day of imaging.
To test whether G-2-MePE treatment will impact the development of cardinal features of the RTT disease, 2 week old mutant animals are given daily intra-peritoneal injections for the course of their lifespan. Measurements of synaptic physiology, synaptic molecular composition, and cortical plasticity are then acquired as detailed below, along with health-related measurements such as heart rate, locomotor activity levels, and lifespan.

In the next assay the test system is MeCP2 deficient mice. Put plainly: Seizure activity, electroencephalographic recordings. As to conditions: mouse, in vivo. The text has this: Because seizures are a prominent, hazardous and a difficult to treat aspect of Rett Syndrome, we determine the effects of G-2MePE on seizure activity in MeCP2 deficient animals. G-2-MePE can be effective in treating seizure activity in animals with neurodegenerative disease (U.S. Pat. No. 7,714,020). Therefore, we carry out experiments to determine whether G-2-MePE can also treat seizure activity in MeCP2 deficient mice. Electroencephalograpic recordings of wild-type mice and MeCP2 deficient mice treated with either saline or G-2-MePE are obtained using methods described in U.S. Pat. No. 7,714,020.

[3] abbreviates: 20 mg/kg i.p. once daily, 9 weeks of age.

`C[C@@]1(C(=O)N[C@@H](CCC(=O)O)C(=O)O)CCCN1C(=O)CN` [Example G-2-MePE, Glycyl-L-2-methylprolyl-L-glutamic acid] (H-Gly-[αMeP]-Glu-OH): the “number of ChAT-immunopositive neurons” value in assay [1] is given as “increased”. Also, the “dendritic length as a function of distance from the soma” value in assay [2] (20 mg/kg i.p. 1/day from week 4, vs saline, FIG. 24) is “longer dendrites”. Besides, in assay [2] (setting [3]), the dendritic arborization entry is “improved” and the dendritic spine length result is reported as “increased”. The “increase in life expectancy (0.5 probability survival rate)” value in the assay on MeCP2-/y mice was about 50%. Moreover, in the assay with MeCP2 deficient mice, the motor seizures result is “effective in decreasing” and the non-convulsive seizures entry is “effective in decreasing”.
